Laboratory results as given in BindingDB's records for patent US12371428 (Exelixis, 2025).

Columns and labels:
[1] = biological target: T1, Tyrosine-protein kinase Mer (Homo sapiens, UniProt Q12866); assay: Human Mer Kinase Assay
T1 sequence (Q12866 whole entry): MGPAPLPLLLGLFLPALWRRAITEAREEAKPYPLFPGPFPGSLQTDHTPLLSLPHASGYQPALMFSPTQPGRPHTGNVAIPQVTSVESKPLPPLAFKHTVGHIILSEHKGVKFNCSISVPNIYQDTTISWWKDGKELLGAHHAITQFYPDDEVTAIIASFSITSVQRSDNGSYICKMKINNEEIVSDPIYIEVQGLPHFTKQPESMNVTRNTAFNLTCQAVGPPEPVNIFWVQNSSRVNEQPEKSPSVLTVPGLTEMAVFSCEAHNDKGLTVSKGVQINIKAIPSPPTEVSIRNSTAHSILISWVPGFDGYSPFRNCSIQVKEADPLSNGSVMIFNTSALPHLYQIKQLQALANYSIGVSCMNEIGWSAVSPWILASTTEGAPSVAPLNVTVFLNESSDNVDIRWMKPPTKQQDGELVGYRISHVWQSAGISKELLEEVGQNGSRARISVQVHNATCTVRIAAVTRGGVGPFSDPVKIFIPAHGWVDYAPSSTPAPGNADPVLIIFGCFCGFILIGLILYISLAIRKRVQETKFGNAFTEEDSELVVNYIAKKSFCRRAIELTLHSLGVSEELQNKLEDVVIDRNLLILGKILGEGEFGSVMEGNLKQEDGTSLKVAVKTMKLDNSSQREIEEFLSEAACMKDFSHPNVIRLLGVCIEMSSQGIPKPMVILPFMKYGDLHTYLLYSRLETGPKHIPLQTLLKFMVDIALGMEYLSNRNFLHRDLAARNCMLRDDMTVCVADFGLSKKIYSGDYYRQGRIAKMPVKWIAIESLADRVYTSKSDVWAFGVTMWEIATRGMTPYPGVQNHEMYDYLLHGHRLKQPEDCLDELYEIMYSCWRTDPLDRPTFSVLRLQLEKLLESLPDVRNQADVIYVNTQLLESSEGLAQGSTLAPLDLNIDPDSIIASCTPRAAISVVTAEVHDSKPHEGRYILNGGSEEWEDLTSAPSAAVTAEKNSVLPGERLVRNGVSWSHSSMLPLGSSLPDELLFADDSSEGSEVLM
Description: Example C-1: Human Mer (residues R557-E882 with H628Q and R794A, 0.7 nM) was incubated with 8 mM MOPS pH 7.0, 0.2 mM EDTA, 30 mM NaCl, 250 μM […] (SEQ ID NO:2), 10 mM magnesium acetate, and 10 μM [γ-33P-ATP]. The reaction was initiated by the addition of the Mg/ATP mix. After incubation for 40 minutes at room temperature, the reaction was stopped by the addition of phosphoric acid to a concentration of 0.5%. A reaction aliquot of 10 μL was then spotted onto a P30 filtermat and washed four times for 4 minutes in 0.425% phosphoric acid and once in methanol prior to drying and scintillation counting. Incorporated 33P was measured using the Wallac Microbeta scintillation counter (Perkin Elmer).Example C-2: Human MER (residues 528-999; CarnaBio, 1 ng/well) was also incubated with enzymatic buffer (Cisbio) supplemented with 5 mM MgCl2 and 1 mM DTT. The mixture was added to the pre-plated compounds. The reaction was initiated upon addition of ATP at Km (40 μM). The reaction was incubated at room temperature for 60 min and stopped upon the addition of SA-XL665 and TK-antibody both diluted in EDTA-containing kinase detection buffer (Cisbio). The kinase activity was calculated as stated above and the IC50 values were reported.

[2] = biological target: Hepatocyte growth factor receptor (Homo sapiens, UniProt P08581); assay: Human Met Kinase Assay
Description: Example D-1: Human Met (residues R974-S1390 with A1209G and V1290L, 3.4 nM) was incubated with 8 mM MOPS pH 7.0, 0.2 mM EDTA, 250 µM […] (SEQ ID NO:3), 1 mM sodium orthovanadate, 5 mM […], 10 mM magnesium acetate, and 10 μM [γ-33P-ATP]. The reaction was initiated by the addition of the Mg/ATP mix. After incubation for 40 minutes at room temperature, the reaction was stopped by the addition of phosphoric acid to a concentration of 0.5%. A reaction aliquot of 10 μL was then spotted onto a P30 filtermat and washed four times for 4 minutes in 0.425% phosphoric acid and once in methanol prior to drying and scintillation counting. Incorporated 33P was measured using the Wallac Microbeta scintillation counter (Perkin Elmer).Example D-2: Human MET (residues 956-1390; CarnaBio, 0.1 ng/well) was also incubated with enzymatic buffer (Cisbio) supplemented with 5 mM MgCl2, 1 mM DTT and 1 mM MnCl2. The mixture was added to the pre-plated compounds. […] The reaction was incubated at room temperature for 40 min and stopped upon the addition of SA-XL665 and TK-antibody both diluted in EDTA-containing kinase detection buffer (Cisbio). The kinase activity was calculated as stated above and the IC50 values were reported.

[3] = biological target: Vascular endothelial growth factor receptor 2 (Homo sapiens, UniProt P35968); assay: Human KDR Kinase Assay
Description: Example B-1: Human KDR (residues K790-V1356, 55 nM) was incubated with 8 mM MOPS pH 7.0, 0.2 mM EDTA, 0.33 mg/mL myelin basic protein, 10 mM magnesium acetate, and 10 μM [γ-33P-ATP]. The reaction was initiated by the addition of the Mg/ATP mix. After incubation for 40 minutes at room temperature, the reaction was stopped by the addition of phosphoric acid to a concentration of 0.5%. A reaction aliquot of 10 μL was then spotted onto a P30 filtermat and washed four times for 4 minutes in 0.425% phosphoric acid and once in methanol prior to drying and scintillation counting. Incorporated 33P was measured using the Wallac Microbeta scintillation counter (Perkin Elmer).Example B-2: Human KDR (residues 790-1356; CarnaBio, 0.1 ng/well) was also incubated with enzymatic buffer (Cisbio) supplemented with 5 mM MgCl2, 1 mM MnCl2, and 1 mM DTT. The mixture was added to the pre-plated compounds. The reaction was initiated upon addition of ATP at Km (4.0 μM). The reaction was incubated at room temperature for 40 min and stopped upon the addition of SA-XL665 and TK-antibody both diluted in EDTA-containing kinase detection buffer (Cisbio). The kinase activity was calculated as stated above and the IC50 values were reported.

Measured: IC50

Vascular endothelial growth factor receptor 2, sequence (P35968 whole entry, the tested form may be a part): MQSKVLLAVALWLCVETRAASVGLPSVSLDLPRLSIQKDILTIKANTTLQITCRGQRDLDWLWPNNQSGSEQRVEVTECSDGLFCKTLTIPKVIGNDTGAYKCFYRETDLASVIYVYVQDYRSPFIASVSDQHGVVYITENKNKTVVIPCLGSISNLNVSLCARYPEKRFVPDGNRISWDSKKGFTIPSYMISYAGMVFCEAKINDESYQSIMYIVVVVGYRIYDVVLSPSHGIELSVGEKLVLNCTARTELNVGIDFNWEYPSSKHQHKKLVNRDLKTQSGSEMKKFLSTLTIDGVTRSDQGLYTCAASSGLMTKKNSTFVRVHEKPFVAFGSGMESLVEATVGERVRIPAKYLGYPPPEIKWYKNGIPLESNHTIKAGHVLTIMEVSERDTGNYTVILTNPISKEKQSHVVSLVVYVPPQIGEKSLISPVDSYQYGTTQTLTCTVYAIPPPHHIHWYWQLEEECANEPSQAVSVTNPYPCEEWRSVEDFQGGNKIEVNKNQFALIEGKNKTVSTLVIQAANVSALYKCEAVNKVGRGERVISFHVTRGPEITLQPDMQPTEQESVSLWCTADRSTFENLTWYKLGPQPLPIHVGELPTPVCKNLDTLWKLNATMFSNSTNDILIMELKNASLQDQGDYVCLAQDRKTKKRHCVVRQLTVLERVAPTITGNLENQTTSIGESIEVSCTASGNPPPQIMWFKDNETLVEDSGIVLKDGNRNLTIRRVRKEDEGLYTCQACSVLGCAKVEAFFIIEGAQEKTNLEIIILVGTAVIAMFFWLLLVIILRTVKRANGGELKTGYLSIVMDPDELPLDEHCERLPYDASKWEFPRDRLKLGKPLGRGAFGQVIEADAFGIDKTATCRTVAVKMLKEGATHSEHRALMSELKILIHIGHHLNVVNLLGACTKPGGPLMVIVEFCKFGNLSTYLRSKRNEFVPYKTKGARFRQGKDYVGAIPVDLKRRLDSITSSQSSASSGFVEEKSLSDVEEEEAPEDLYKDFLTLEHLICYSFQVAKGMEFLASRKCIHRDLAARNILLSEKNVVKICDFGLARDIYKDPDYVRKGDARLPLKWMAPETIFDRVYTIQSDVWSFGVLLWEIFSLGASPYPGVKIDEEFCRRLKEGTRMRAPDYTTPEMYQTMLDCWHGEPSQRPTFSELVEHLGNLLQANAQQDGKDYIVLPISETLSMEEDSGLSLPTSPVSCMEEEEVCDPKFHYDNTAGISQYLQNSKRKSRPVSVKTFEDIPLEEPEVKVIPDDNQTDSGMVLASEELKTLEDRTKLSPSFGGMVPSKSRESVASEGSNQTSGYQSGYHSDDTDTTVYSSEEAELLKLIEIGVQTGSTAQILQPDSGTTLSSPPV
Hepatocyte growth factor receptor, sequence (P08581 whole entry, the tested form may be a part): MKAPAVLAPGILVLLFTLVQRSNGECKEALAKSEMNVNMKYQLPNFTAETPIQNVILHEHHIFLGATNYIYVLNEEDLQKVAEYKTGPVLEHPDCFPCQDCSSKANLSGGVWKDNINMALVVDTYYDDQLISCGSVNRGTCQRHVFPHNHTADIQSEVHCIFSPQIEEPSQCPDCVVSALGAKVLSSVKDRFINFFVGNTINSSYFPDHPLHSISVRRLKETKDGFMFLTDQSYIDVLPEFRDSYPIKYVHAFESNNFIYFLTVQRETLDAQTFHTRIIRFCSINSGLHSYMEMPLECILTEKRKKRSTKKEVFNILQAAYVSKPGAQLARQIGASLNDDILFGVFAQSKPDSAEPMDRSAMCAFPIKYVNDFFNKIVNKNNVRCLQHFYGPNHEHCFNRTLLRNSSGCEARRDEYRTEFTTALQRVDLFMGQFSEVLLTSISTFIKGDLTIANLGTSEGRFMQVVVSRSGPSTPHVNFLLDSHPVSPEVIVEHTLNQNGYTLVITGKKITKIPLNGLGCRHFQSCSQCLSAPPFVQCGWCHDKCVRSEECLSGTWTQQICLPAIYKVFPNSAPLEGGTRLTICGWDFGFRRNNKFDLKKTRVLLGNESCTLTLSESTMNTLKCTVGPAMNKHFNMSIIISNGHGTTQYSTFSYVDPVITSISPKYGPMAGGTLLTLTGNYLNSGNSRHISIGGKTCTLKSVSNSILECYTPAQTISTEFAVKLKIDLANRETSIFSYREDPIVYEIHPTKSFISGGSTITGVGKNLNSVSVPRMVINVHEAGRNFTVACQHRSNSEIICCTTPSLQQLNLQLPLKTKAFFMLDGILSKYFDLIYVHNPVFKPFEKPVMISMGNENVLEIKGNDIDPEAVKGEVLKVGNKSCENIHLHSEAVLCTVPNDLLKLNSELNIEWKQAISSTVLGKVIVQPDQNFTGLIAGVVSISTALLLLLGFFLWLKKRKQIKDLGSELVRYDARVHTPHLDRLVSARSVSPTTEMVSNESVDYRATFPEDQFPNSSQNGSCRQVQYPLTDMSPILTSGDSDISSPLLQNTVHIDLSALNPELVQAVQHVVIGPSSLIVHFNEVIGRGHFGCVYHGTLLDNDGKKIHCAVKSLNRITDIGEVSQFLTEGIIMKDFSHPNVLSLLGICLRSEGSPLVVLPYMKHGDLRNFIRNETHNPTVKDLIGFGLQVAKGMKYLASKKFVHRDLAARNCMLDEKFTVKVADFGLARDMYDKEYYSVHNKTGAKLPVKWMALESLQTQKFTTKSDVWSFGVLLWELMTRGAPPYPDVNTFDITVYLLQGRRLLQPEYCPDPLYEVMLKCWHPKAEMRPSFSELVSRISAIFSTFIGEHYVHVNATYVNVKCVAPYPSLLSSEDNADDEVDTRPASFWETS

COc1cc2nccc(Oc3ccc(NC(=O)C4C(=O)C(c5ccc(F)cc5)=C(C)N=C4C)cc3F)c2nc1OC (stereo unspecified) [US12371428, Compound 154]
< 100 nM: all assays above

COCCOc1ccc2nccc(Oc3ccc(NC(=O)C4=C(C)N=C(C)C(c5ccc(F)cc5)C4O)cc3F)c2n1 (stereo unspecified) [US12371428, Compound 349]
< 100 nM: all assays above
